Source: patent US9314472B2, “Treatment and prevention of mastitis” (BRIGHAM YOUNG UNIVERSITY, priority 2012, dated 2016)
Structures can show the parent of a compound that is named as a salt.

Legend:
Escherichia coli = assay: Dose characterization study, CSA-44/propylene glycol formulation, intramammary treatment of clinical mastitis; type: in vivo, lactating dairy cows; conditions: 60 mg CSA-44 per quarter, infused eight to ten times at 12-hour interval; cured = no clinical signs 10 days post-treatment, milk visibly normal, SCC < 350,000 cells
Protocol: (§1) A first dose characterization study was conducted using CSA-44 hydrochloride with and without propylene glycol based in the formulation. This study enabled the selection of a dose to be used in a dose confirmation (field) study, which was conducted using two propylene glycol formulations and 60 mg of CSA-44 hydrochloride per 10 ml syringe.
(§2) The objective of this study was to evaluate the effectiveness of intramammary administered CSA-44, with and without propylene glycol as part of the formulation, for the treatment of clinical mastitis in lactating dairy cows.
(§3) A total of 42 cow quarters from Blue Star Dairy (BSD) were enrolled. Cows in their second or greater lactation, with an elevated somatic cell count (SCC) and either a positive milk culture for a mastitis pathogen or signs of clinical mastitis were assigned to one of two treatment groups: 1) ceftiofur hydrochloride administered 2-7 times, per label directions; and 2) 60 mg of CSA-44 per quarter, cows were infused eight to ten times at a 12-hour interval. A quarter was considered cured if there were no clinical signs of mastitis 10 days post-treatment, milk was visibly normal, and somatic cell count (SCC) was less than 350,000 cells. Using these criteria, cure rates for Group CSA treated cows were 87% for Staph. spp. (CNS and Staph. aureus), 90% for Escherichia coli, and 78% for Strep spp. (Streptococcus dysgalactiae, Strep. uberis, and Streptococcus sp).

[1] = tested on: Staph. spp. (CNS and Staph. aureus); assay: as above; type: in vivo, lactating dairy cows; conditions: 60 mg CSA-44 per quarter, infused eight to ten times at 12-hour interval; cured = no clinical signs 10 days post-treatment, milk visibly normal, SCC < 350,000 cells
Protocol: as §1, §2, §3

[2] = tested on: Strep spp. (Streptococcus dysgalactiae, Strep. uberis, and Streptococcus sp); assay: as above; type: in vivo, lactating dairy cows; conditions: 60 mg CSA-44 per quarter, infused eight to ten times at 12-hour interval; cured = no clinical signs 10 days post-treatment, milk visibly normal, SCC < 350,000 cells
Protocol: as §1, §2, §3

[3] = tested on: combined gram positive and gram negative bacteria; assay: CSA-44/saline formulation study, intramammary treatment of clinical mastitis, all cases; type: in vivo, lactating dairy cattle; conditions: for cure rate for all mastitis cases: CSA-44 120 mg three times or cephapirin sodium 200 mg two times, intramammary, 24-hour interval, cured = no clinical signs, visibly normal milk, negative milk culture 11 days post-treatment; for % Cure / Cure (number) / Not Cure (number): combined gram positive and gram negative, CSA-44 120 mg x3 or cephapirin sodium 200 mg x2 intramammary, 11 days post-treatment
Protocol: (§4) A second dose characterization study was conducted using a non-final (saline) formulation of CSA-44 hydrochloride. The study enabled the selection of a dose to be used in the dose confirmation (field) study, which was conducted using the saline formulation of CSA-44 hydrochloride.
(§5) The objective of this study was to evaluate the effectiveness of intramammary administered CSA-44, as a saline based formulation, for the treatment of clinical mastitis in lactating dairy cows.
(§6) The objective was to evaluate the effectiveness of intramammary infusion of CSA-44 hydrochloride sterile suspension three times at a 24-hour interval at 120.0 mg dosage in the affected quarter in comparison to a negative control or 200 mg of cephapirin sodium activity in a stable peanut oil gel for the treatment of clinical mastitis in lactating dairy cattle.
(§7) A total of 151 cows from 2 herds were enrolled. Cows were enrolled in the study when they had visually abnormal milk (clots, flakes, or watery secretion) or if udder swelling, heat, pain or redness were present and milk was not yet visually abnormal, but the California Mastitis Test (CMT) gave results of 2 or greater. A pre-treatment milk sample was obtained from each affected quarter(s) and cultured for the presence of organisms associated with mastitis; the culture data were not available prior to treatment assignments.
(§8) Cows were assigned in blocks of three to receive either 120 mg CSA-44 HCl, 200 mg cephapirin sodium, or no treatment. Enrollment was restricted to cows with one quarter affected with clinical mastitis.
(§9) CSA-44 (120 mg) or cephapirin sodium (200 mg) was administered as an intramammary infusion three times or two times, respectively, at a 24-hour interval beginning on the day of enrollment (Day 0). Cows assigned to the control group were left untreated. […]. Cows in their second or greater lactation, with an elevated somatic cell count (SCC) and either a positive milk culture for a mastitis pathogen or signs of clinical mastitis were assigned to one of three treatment groups. A quarter was considered cured if there were no clinical signs of mastitis, visibly normal milk, and a negative milk culture 11 days post-treatment. Using these criteria, cure rates for all mastitis cases were 28.0% (Control-0 mg), 63.0% (cephapirin sodium, 200 mg), and 75.0% (CSA-44, 120 mg).
Test data for combined gram positive and gram negative bacteria are set forth in Table 3 below and graphically illustrated in FIG. 2C.

gram positive bacteria = assay: CSA-44/saline formulation study, intramammary treatment of clinical mastitis, gram positive; type: in vivo, lactating dairy cattle; conditions: CSA-44 120 mg x3 or cephapirin sodium 200 mg x2 intramammary, 11 days post-treatment
Protocol: as §4, §5, §6, §7, §8, §9
Test data for gram positive bacteria are set forth in Table 1 below and graphically illustrated in FIG. 2A.

gram negative bacteria = assay: CSA-44/saline formulation study, intramammary treatment of clinical mastitis, gram negative; type: in vivo, lactating dairy cattle; conditions: CSA-44 120 mg x3 or cephapirin sodium 200 mg x2 intramammary, 11 days post-treatment
Protocol: as §4, §5, §6, §7, §8, §9
Test data for gram negative bacteria are set forth in Table 2 below and graphically illustrated in FIG. 2B.

[4] = Animal safety: udder irritation after intramammary infusion of CSA-44 sterile saline suspension; type: in vivo, lactating female Holstein dairy cattle; conditions: 120 mg
Protocol: The purpose of this example was to study the effects on dairy cows relative to udder irritation of intramammary infusion of a sterile formulation of CSA-44 containing either […] of CSA-44 per 10 mL plastet into both front quarters. More particularly, the study evaluated the safety of intramammary infusion of 120 mg, 150 mg and 200 mg CSA-44 hydrochloride sterile saline (0.9% NaCl) suspension, respectively, in each of two front quarters daily for three consecutive days with an approximate 24-hour interval between infusions.
Three lactating female Holstein dairy cattle ranging from 2 to 5 years of age and representing low milk producers (13.2 kg to 24.0 kg/day) and high milk producers (25.0 kg to 31.9 kg/day) were used in the study. Cows were enrolled based on the absence of mastitis pathogens, absence of clinical mastitis (normal strip cup and udder palpation), a somatic cell count (SCC) less than or equal to 200,000 per mL, and no edema or teat lesions.
Within each of the lactation/production subgroups (1st lactation high producers, 1st lactation low producers, ≧2nd lactation high producers, or ≧2nd lactation low producers), cows were assigned to receive either three doses of CSA-44 by intramammary infusion. There were no non-treated controls.
Following a 3-day pre-treatment clinical observation and milk sample collection period, animals received their assigned treatment. Measurements and observations continued during the treatment period and through Day 3 (60 hours) post treatment.
A CSA-44 sterile saline suspension (120 mg, 150 mg, or 200 mg) was administered as an intramammary infusion into both front quarters once at a 24-hour interval for three consecutive days. The following clinical and production measures were evaluated for a total of either 14 milkings: appearance of foremilk (strip cup evaluation), physical condition of udder, milk production, and general health.

[5] = Human food safety: total residue study of CSA-44 in bovine milk by HPLC with MS detection; type: in vivo, lactating Holstein cows; conditions: predicted; intramammary 120, 150 or 200 mg daily for three days
Description: The objective of this study was to validate a method for the determination of CSA-44 in bovine milk by HPLC with MS detection. The protocol has been designed to fulfill the requirements outlined in the FDA/CVM Guidance for Industry #208^1. ^1Guidance for Industry #208: Studies to Evaluate the Metabolism and Residue Kinetics of Veterinary Drugs in Food-Producing Animals: Validation of Analytical Methods used in Residue Depletion Studies. VICH GL49. U.S. Department of Health and Human Services, Food and Drug Administration, Center for Veterinary Medicine. Sep. 15, 2011
A GLP-compliant total residue study was conducted in 3 healthy, lactating Holstein cows. Cows tested were in the middle of their 2nd or 3rd lactation. The more specific objective was to evaluate the safety of intramammary infusion of 120, 150 and 200 mg dosages of CSA-44 hydrochloride sterile saline (0.9% NaCl) suspension, respectively, in each of two front quarters daily for three consecutive days with an approximate 24-hour interval between infusions.
Three lactating female Holstein dairy cattle ranging from 2 to 5 years of age and representing low milk producers (13.2 kg to 24.0 kg/day) and high milk producers (25.0 kg to 31.9 kg/day) were used in the study. […]

[6] = tested on: coagulase-negative staphylococci, Streptococcus dysgalactae, and Eshcherica coli; conditions: from Freedom Of Information Summary NADA 141-238, sterile suspension of ceftiofur hydrochloride; cited from earlier work
[7] = 150 mg or 200 mg in sterile saline, intramammary into both front quarters, once daily for three consecutive days

SMILES | cure rate for all mastitis cases [3] | % Cure [3] | Cure (number) [3] | Not Cure (number) [3] | % Cure (gram positive bacteria) | Cure (number) (gram positive bacteria) | Not Cure (number) (gram positive bacteria) | % Cure (gram negative bacteria) | Cure (number) (gram negative bacteria) | Not Cure (number) (gram negative bacteria) | also measured
CCCCCCCCOC(=O)CC[C@@H](C)[C@H]1CC[C@H]2[C@@H]3[C@H](OC(=O)CCN)C[C@@H]4C[C@H](OC(=O)CCN)CC[C@]4(C)[C@H]3C[C@H](OC(=O)CCN)[C@]12C [CSA-44] | 75.0% | 75% | 45 | 15 | 70% | 29 | 12 | 84% | 16 | 3 | cure rate (Escherichia coli): 90%; cure rate [1]: 87%; cure rate [2]: 78%; milk quality appearance and strip cup response during treatment [4, 7]: no change in milk quality; udder physical condition scores, strip cup analyses, milk production (milk weight and percent milk fat) in response to treatment [4, 7]: no overall differences; clinical safety and irritation of mammary tissue ([4]; sterile saline formulation, 150 mg or 200 mg per 10 mL dose, infused once daily for up to three consecutive days): clinically safe and not irritating to the mammary tissue; time until CSA-44 is undetectable in milk [5]: 60 to 72 h; time until residues in the milk are substantially depleted [5]: 24 to 48 h
CC(=O)OCC1=C(C(=O)O)N2C(=O)[C@@H](NC(=O)CSc3ccncc3)[C@H]2SC1 [Cephapirin Sodium, cephapirin sodium, reference compound] | 63.0% | 62% | 32 | 20 | 62% | 21 | 13 | 61% | 11 | 7 | –
CO/N=C(\C(=O)N[C@@H]1C(=O)N2C(C(=O)O)=C(CSC(=O)c3ccco3)CS[C@H]12)c1csc(N)n1 [Ceftiofur HCl, ceftiofur hydrochloride] | – | – | – | – | – | – | – | – | – | – | % Cure [6]: 70%; Cure (number) [6]: 38; Not Cure (number) [6]: 16
